Experimental findings from ChEMBL document CHEMBL3046344, “Phytochemical based strategies for nematode control” (2002) are described below.

Holding throughout (assay type): functional
In assay [1] the test system is Meloidogyne incognita. As to the kind of experiment: Nematocidal activity against Meloidogyne incognita (root-knot nematode) assessed as mortality at 10 ug/ml.
For assay [2], the system named is Caenorhabditis elegans. As to the kind of experiment: Nematocidal activity against Caenorhabditis elegans assessed as mortality at 50 ug/ml.
Assay [3] deals with Panagrellus redivivus. Nature of the assay: Nematocidal activity against Panagrellus redivivus assessed as mortality at 12.5 ug/ml.
Assay [4] concerns Caenorhabditis elegans. Nature of the assay: Nematocidal activity against Caenorhabditis elegans assessed as mortality. Particulars: for LC50 / minimal effective concentration: Caenorhabditis elegans; for minimal effective concentration: read-out: MEC.
Assay [5] has as its system Meloidogyne incognita. As to the kind of experiment: Nematocidal activity against Meloidogyne incognita (root-knot nematode) assessed as inhibition of penetration in tomato root at 25 ug/ml. The arrangement: scale not given: the % may be the effect or the level left.
For assay [6], the system named is Panagrellus redivivus. As to the kind of experiment: Nematocidal activity against Panagrellus redivivus. Particulars: read-out: ED50 (the source's name).
Assay [7] deals with Meloidogyne incognita. As to the kind of experiment: Nematocidal activity against Meloidogyne incognita (root-knot nematode). Particulars: read-out: LD50 (the source's name).
Another assay deals with Radopholus similis. Nature of the assay: Nematocidal activity against Radopholus similis. Particulars: read-out: LD50 (the source's name).
A further assay has as its system Heterodera schachtii. As to the kind of experiment: Nematocidal activity against Heterodera schachtii. The note with it: read-out: LD50 (the source's name).
Assay [8] relates to Pratylenchus penetrans. Nature of the assay: Nematocidal activity against Pratylenchus penetrans. Particulars: read-out: LD50 (the source's name).
For the next assay, the system named is Ditylenchus dipsaci. Nature of the assay: Nematocidal activity against Ditylenchus dipsaci assessed as motility. Particulars: read-out: ED50 (the source's name).
Assay [9] concerns Pratylenchus penetrans. As to the kind of experiment: Nematocidal activity against Pratylenchus penetrans assessed as motility and viability.
In assay [10] the test system is Meloidogyne incognita. Nature of the assay: Nematocidal activity against Meloidogyne incognita (root-knot nematode) in tomato assessed as reduction of infection at 50 ug/ml. The arrangement: scale not given: the % may be the effect or the level left.
For assay [11], the system named is Meloidogyne incognita. Nature of the assay: Nematocidal activity against Meloidogyne incognita (root-knot nematode) assessed as motility and viability.
[12] abbreviates: read-out: LD50 (the source's name).

In brackets after ≈: the same amount, converted by molar mass. Numbered stars: 1 amine (or outer) side, 2 acyl side, 3 side chain; on linkers, the order of the positions; unused ones are H or OH. Bridge positions count the residues as written; N and C are the ends. Square brackets hold non-standard residues; d marks the D form. Peptide text beside a SMILES is read from it. NMeW = CN[C@@H](Cc1c[nH]c2ccccc12)C(=O)O; X1 = CC(C)[C@@H](C(=O)[*:1])N(C)O[*:2]; NMeI = CC[C@H](C)[C@H](NC)C(=O)O; NMeV = CN[C@H](C(=O)O)C(C)C; Sar = CNCC(=O)O

For the molecule `CCCCCCCC/C=C\C(=O)O` [2-UNDECYLENIC ACID], the Activity in the assay with Meloidogyne incognita [1] came to 70%.

In the case of `CCCCC1OC(=O)C2=C1CCC=C2` (centres undefined) [3-N-BUTYL-4,5-DIHYDROPHTHALIDE], the Activity with Caenorhabditis elegans [2] and in the assay with Panagrellus redivivus [3] was 100% throughout.

As to `CC(=O)C#Cc1ccccc1` [4-PHENYL-3-BUTYN-2-ONE], in the assay with Caenorhabditis elegans [4] (read-out: LC50), the LC50 came out at 0.3 µg/mL (≈ 2.08 µM).

Take `C=Cc1ccc(O)cc1` [4-VINYLPHENOL]: the minimal effective concentration in the assay on Caenorhabditis elegans [4] was 300 µg/mL.

Consider `C=CCS[S+]([O-])CC=C` (centres undefined) [ALLICIN], for which the Activity in the assay on Meloidogyne incognita [5] was 50%.

On to `C[C@H]1CC[C@@H]2[C@@H](C)[C@H]3[C@H](C[C@H]4[C@@H]5CC=C6C[C@@H](O[C@@H]7O[C@H](CO)[C@H](O[C@@H]8O[C@@H](C)[C@H](O)[C@@H](O)[C@H]8O)[C@H](O)[C@@H]7O[C@@H]7O[C@@H](C)[C@@H](O)[C@@H](O)[C@H]7O)CC[C@]6(C)[C@H]5CC[C@]34C)N2C1` [ALPHA-CHACONINE], for which the EC50 in the assay with Panagrellus redivivus [6] came out at 85 µg/mL (≈ 99.8 µM).

With `Oc1ccccc1O` [CATECHOL], the Activity with Caenorhabditis elegans [4] is 100%.

As for `C=CCc1ccc(O)cc1` [CHAVICOL], the minimal effective concentration with Caenorhabditis elegans [4] was 300 µg/mL.

With `COc1c(-c2ccco2)coc(=O)c1C` [CLADOBOTRIN], in the assay with Meloidogyne incognita [7], the LC50 stood at 100 µg/mL (≈ 485 µM).

For the molecule `COc1cc(CC(C)C(C)Cc2ccc(O)c(OC)c2)ccc1O` (centres undefined) [DIHYDROGUAIARETIC ACID], in the assay with Caenorhabditis elegans [4] (setting [12]), the LC50 was determined as 10 µg/mL (≈ 30.3 µM).

With `C=CCc1ccc(O)c(O)c1` [HYDROXYCHAVICOL], the minimal effective concentration with Caenorhabditis elegans [4] stood at 300 µg/mL.

As for `CCCCC/C=C\C/C=C\CCCCCCCC(=O)O` [LINOLEIC ACID], the LC50 with Meloidogyne incognita [7] turned out to be 50 µg/mL (≈ 178 µM); with Caenorhabditis elegans [4] (setting [12]), 5 µg/mL (≈ 17.8 µM).

Turning to `CC[C@H](C)[C@H]1C(=O)NCC(=O)N(C)[C@@H](Cc2c[nH]c3ccccc23)C(=O)N[C@@H](C(C)C)C(=O)N(C)[C@@H]([C@@H](C)CC)C(=O)N(C)[C@@H](C(C)C)C(=O)ON(C)[C@@H](C(C)C)C(=O)N(C)CC(=O)N(C)[C@@H](C(C)C)C(=O)N(C)[C@@H]([C@@H](C)CC)C(=O)N(C)CC(=O)N[C@@H](C(C)C)C(=O)N1C` [OMPHALOTIN A] ([Sar][NMeV][NMeI][Sar]V[NMeI]G[NMeW]V[NMeI][NMeV]; linker N-C via X1), the LC50 was > 75 µg/mL in the assay on Radopholus similis, 0.75 µg/mL (≈ 0.562 µM) with Meloidogyne incognita [7], 30 µg/mL (≈ 22.5 µM) in the assay with Heterodera schachtii and 25 µg/mL (≈ 18.7 µM) with Pratylenchus penetrans [8].

Consider `COc1cc(O)cc(/C=C/c2ccccc2)c1` [PINOSYLVIN METHYL ETHER], for which, in the assay on Caenorhabditis elegans [4] (setting [12]), the LC50 was found to be 4 µg/mL (≈ 17.7 µM).

`C=C(C)[C@@H]1CCC2=C[C@@H](O)[C@H](O)[C@@H](C)C2C1` (some centres undefined) [RISHITIN]: in the assay with Ditylenchus dipsaci, the EC50 stood at 100 µg/mL (≈ 450 µM).

With `C=C/C=C/C#CC1=CC=C(C#CC)SS1` [THIARUBRINE C], the LC50 was 23500 µg/mL (≈ 102000 µM) with Pratylenchus penetrans [9] and 12400 µg/mL (≈ 53800 µM) in the assay on Meloidogyne incognita [11]. For the same molecule, the Activity with Meloidogyne incognita [10] amounted to 95%.

On to `C[C@H]1CC[C@]2(NC1)O[C@H]1C[C@H]3[C@@H]4CC[C@H]5C[C@@H](O[C@@H]6O[C@H](CO)[C@H](O[C@@H]7O[C@H](CO)[C@@H](O)[C@H](O[C@@H]8OC[C@@H](O)[C@H](O)[C@H]8O)[C@H]7O[C@@H]7O[C@H](CO)[C@@H](O)[C@H](O)[C@H]7O)[C@H](O)[C@H]6O)CC[C@]5(C)[C@H]4CC[C@]3(C)[C@H]1[C@@H]2C` [TOMATINE], for which the EC50 in the assay with Panagrellus redivivus [6] came to 50 µg/mL (≈ 48.3 µM).
